The values below are quoted from earlier work in US10543230B2, “Redox signaling gel formulation” (RDG Holdings, Inc., priority 2013, dated 2020).

For this data set the following is noted: pH around 7.0, room temperature.

The structures appear in SMILES notation.

Take `O=[O+][O-]` [dissolved ozone (O3), ozone]: the half-life result is on record as “about 20 min”. For the molecule `[O]O` [superoxide free radicals (O2*-), superoxide], the half-life is recorded as 10's of milliseconds.
